Measured values taken from article PMC4846832, “Discovery of new MD2 inhibitor from chalcone derivatives with anti-inflammatory effects in LPS-induced acute lung injury” (Scientific Reports, 2016).

Target: T1, MD2 (myeloid differentiation protein 2) (Homo sapiens, UniProt Q9Y6Y9)
T1 construct: gene LY96; recombinant human MD2 (rhMD2)
T1 sequence (Q9Y6Y9 19-160): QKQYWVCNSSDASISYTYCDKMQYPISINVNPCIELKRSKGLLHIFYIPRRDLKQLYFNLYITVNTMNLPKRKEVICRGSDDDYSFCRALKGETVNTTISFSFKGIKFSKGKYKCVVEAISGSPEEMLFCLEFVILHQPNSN
Assay: SPR (ProteOn XPR36); supported by bis-ANS displacement and biotin-LPS competitive ELISA
Assay type: binding

Work on `COc1ccc(C(=O)/C=C/c2cc(OC)c(OC)c(OC)c2)cc1OC` [compound 20] yielded a Kd of 189 µM.
